Peptide text beside a SMILES is read from it.
Legend:
[1] = tested on: scopolamine-induced memory impairment model mice; experiment: Morris water maze (place navigation and probe trial); type: in vivo, Male C57BL/6N mice
Method: In vivo studies were performed in accordance with the Guide for the Care and Use of Laboratory Animals published by the […]. Male C57BL/6N mice weighing 25-30 g were purchased from Liaoning Changsheng Biotechnology Co., Ltd. (Benxi, China). Mice were housed at a stable temperature (22±1° C.) under a 12 h/12 h light/dark cycle. The mice were given access to standard diet and water ad libitum. […]
A circular pool for Morris water maze (1,200 mm in diameter) was filled with warm water at 20±2° C., while a platform (65 mm diameter) was hidden in the Southwest (SW) quadrant 1 cm below the water surface. A mouse was gently placed in the Northeast (NE) quadrant facing the pool wall, the swimming trajectory of the mouse was recorded by the image acquisition system, and the time was measured for 120 s. The time it took to find the platform in the SW quadrant within 120 s was recorded as the latency, while the mouse that reached the platform was allowed to sit on the platform for 10 s and then returned to the holding cage. […] Subsequently, the time from the mice being placed in the water to finding the platform was analyzed and calculated according to the data acquisition system (see FIG. 2A). […]
After the place navigation was completed, the platform hidden in the water was taken out. A mouse was gently placed in the Northeast (NE) quadrant facing the pool wall, the swimming trajectory of the mouse was recorded by the image acquisition system, and the time was measured for 90 s. According to the data acquisition system, the time spent in the target quadrant (see FIG. 2B) and the frequency of original platform crossing (see FIG. 2C) within 90 s were analyzed and calculated on the mouse. […]

[2] = ABTS free radical scavenging assay; type: physicochemical; settings: concentration of 100 μM
Method: (1) ABTS free radical scavenging assay: Equal volumes of a 7 mmol/L ABTS aqueous solution and a 2.49 mmol/L potassium persulfate aqueous solution were mixed and left to stand in the dark for 12 h to obtain an ABTS free radical stock solution, which was stored at 4° C. When in use, the stock solution was diluted with 5 mmol/L PBS until the absorbance of the solution was 0.700±0.002 at 734 nm, and an ABTS free radical working solution was prepared. Separately, 10 μL of each of the aqueous solutions of derivative peptides with a concentration of 100 μM was added to a 96-well plate, while glutathione (GSH) of the same concentration was used as a control; these solutions reacted with 190 μL of ABTS free radical working solution accurately for 6 min, and absorbance values (A1) were measured at a wavelength of 734 nm using a microplate reader. The calculation formula for scavenging rate is as follows: […]
where A0 is the absorbance value that replaces the derivative peptide solution with distilled water;
A1 is the absorbance value of the solution adding a derivative peptide or GSH; and
A2 is the absorbance value of the solution using 5 mmol/L PBS instead of the ABTS free radical working solution.

[3] = Oxygen radical antioxidant capacity (ORAC) assay; type: physicochemical; settings: 100 μM aqueous solutions
Method: (2) ORAC assay: (1) On a 96-well black plate, 25 μL each of PBS, Trolox standard solutions (12.5, 25, 50, and 100 μM) and aqueous solutions of five derivative peptides (100 μM) was added. The 96-well plate was placed and shaken in a microplate reader preheated for 30 min for 5 s, and incubated at 37° C. for 10 min. To each well, 150 μL each of FL working solution was added using a multi-channel pipette, and the plate was shaken for 5 s and incubated at 37° C. for 20 min. To each well, 25 μL each of AAPH was quickly added using the multi-channel pipette, and the plate was shaken for 5 s, followed by reading. The fluorescence intensity was continuously measured at an excitation wavelength of (485±20) nm and an emission wavelength of (530±20) nm. The whole system was held at 37° C., and the fluorescence intensity was measured every 2 min. Before each measurement, the well plate was shaken at a medium speed for 10 s, and the oscillation amplitude was 4 mm. The measurement was performed until the fluorescence intensity reached 5% of the initial fluorescence intensity (60 cycles were set in this assay). The relative fluorescence intensity is calculated by the area under the fluorescence decay curve (AUC) as follows: AUC=0.5×[2×(f0+f1 . . . +fn-1+fn)−f0−fn]×Δt
(1) In the formula, fn is the relative fluorescence intensity at the n-th measurement point; and Δt is the interval between adjacent time points, namely 2 min.
(2) The measurement results are expressed as ORAC values. The ORAC values of unknown samples are expressed in μmol TE/g. ORAC value=[(AUCSample−AUCBlank)/(AUCTrolox−AUCBlank)]×CTrolox/CSample.
Herein, AUCSample is the result of each of the aqueous solutions of five derivative peptides; AUCBlank is the result after adding 25 μL of PBS; AUCTrolox is the result after adding Trolox standard solution (100 μM); CTrolox is the molar concentration of Trolox, namely, 100 μM;
CSample is the molar concentration of each derivative peptide, calculated from the Trolox standard curve, where the Trolox standard curve is y=0.0756x+41.989, R^2=0.9931, the abscissa is the molar concentration of Trolox (12.5, 25, 50, or 100 μM), and the ordinate is AUCTrolox.

[4] = Thermal stability testing (RP-HPLC peak area); type: physicochemical; settings: 100 μM, pH 7.0, 20-100° C. water bath for 2 h
Method: Thermal Stability Testing (see FIG. 4A): • Step 1, the solid powder of derivative peptide WYSGK (SEQ ID NO:4) was dissolved in distilled water to prepare a 100 μM solution, the pH value was adjusted to 7.0, and the resulting solution was stored at 4° C. for later use; • Step 2, the derivative peptide WYSGK (SEQ ID NO: 4) solution in step 1 was divided into five tubes (1 mL/tube), and each tube was placed in a water bath at 20, 40, 60, 80, and 100° C. for 2 h; • Step 3, the blank group (the derivative peptide WYSGK (SEQ ID NO: 4) solution in step 1 without water bath treatment) and the derivative peptide WYSGK (SEQ ID NO:4) solution at each temperature were filtered through a 0.22 μm filter membrane; • Step 4, RP-HPLC was performed under the following conditions: detection wavelength: 220 nm; column temperature: 25° C.; mobile phase A: acetonitrile+0.1% (v/v) TFA; mobile phase B: acetonitrile+0.1% (v/v) TFA. Elution conditions were programmed as follows: 0-25 min, 10%-35% B (the value could be input in the liquid phase equipment); flow rate 1.0 mL/min; and • Step 5, the peak area in the liquid chromatogram was calculated to determine whether the derivative peptide WYSGK (SEQ ID NO:4) was degraded at different temperatures (refer to Liu Xintong's method, Sci. Technol. Food Ind., Vol. 41, No. 19, 2020).

[5] = Acid-base stability testing (RP-HPLC peak area); type: physicochemical; settings: 100 μM, pH 2, 4, 6, and 8, 37° C. for 2 h
Method: Acid-base Stability Testing (see FIG. 4B): • Step 1, the solid powder of derivative peptide WYSGK (SEQ ID NO: 4) was dissolved in distilled water to prepare a 100 μM solution, which was used as a blank group and stored at 4° C. for later use; • Step 2, the solid powder of derivative peptide WYSGK (SEQ ID NO: 4) was diluted with aqueous solutions with pH 2, 4, 6, and 8 to a concentration of 100 μmol/L, respectively, and the resulting solutions were incubated in a water bath at 37° C. for 2 h; • Step 3, the blank group and WYSGK (SEQ ID NO: 4) sample solutions at different pH were filtered through a 0.22 μm filter membrane; • Step 4, RP-HPLC was performed under the following conditions: detection wavelength: 220 nm; column temperature: 25° C.; mobile phase A: 100% acetonitrile+0.1% TFA; mobile phase B: 100% acetonitrile+0.1% TFA. Elution conditions were programmed as follows: 0-25 min, 10%-35% B (gradient elution); flow rate 1.0 mL/min; and • Step 5, the peak area in the liquid chromatogram was calculated to determine whether the derivative peptide WYSGK (SEQ ID NO: 4) was degraded at different pH (refer to Liu Xintong's method, Sci. Technol. Food Ind., Vol. 41, No. 19, 2020).

[6] = Simulated gastrointestinal digestion stability testing; type: in vitro ADME; settings: pepsin up to 2 h then trypsin up to 2 h, 37° C.
Source text: […]

| Compound | ABTS free radical scavenging rate [2] | ORAC value [3] | also measured |
| --- | --- | --- | --- |
| WYPGK: pine nut-derived antioxidant peptide, template for the derivative peptides (pine nut antioxidant peptide) |  |  | escape latency compared with the model group ([1]; place navigation, 5-day training, FIG. 2A): shorter escape latency; time spent in target quadrant compared with the model group ([1]; probe trial, within 90 s, FIG. 2B): significant decreases; frequency of original platform crossing compared with the model group ([1]; probe trial, within 90 s, FIG. 2C): significant decreases |
| N[C@@H](CCC(=O)N[C@@H](CS)C(=O)NCC(=O)O)C(=O)O [GSH, reduced glutathione, reference compound] | 31.39% | 995.58 μmol TE/g |  |
| Trp-Tyr-Phe-Gly-Lys (WYFGK; derivative peptide) | 36.56% | 3,762.05 μmol TE/g |  |
| Trp-Tyr-Glu-Gly-Lys (WYEGK; derivative peptide) | 54.48% | 5,422.29 μmol TE/g |  |
| Trp-Tyr-Lys-Gly-Lys (WYKGK; derivative peptide) | 40.31% | 3,681.50 μmol TE/g |  |
| NCCCC[C@H](NC(=O)CNC(=O)[C@H](CO)NC(=O)[C@H](Cc1ccc(O)cc1)NC(=O)[C@@H](N)Cc1c[nH]c2ccccc12)C(=O)O [WYSGK, Trp-Tyr-Ser-Gly-Lys] (H-WYSGK-OH; N-terminus and C-terminus assumed) |  |  | degradation at different temperatures (thermal stability) [4]: hardly degraded; degradation at different pH (acid-base stability) [5]: hardly degraded; retention rate of peptide content [6]: at least 93.45% |
